According to patent US10525073B2, “Method for improving kidney and/or heart function in patients with kidney disease” (MacKay Memorial Hospital, priority 2015, dated 2020):

Legend:
Format in all cases: in vivo, Sprague Dawley rats
[1] = test system: CKD rats; assay: Uremic toxins (indoxyl sulfate, P-cresyl sulfate) in serum of CKD rats; settings: serum collected from CKD rats
Description: SD rats (about 10 weeks old) scheduled to undergo 5/6 nephrectomy or sham surgery were anesthetized by Zoletil 50/Xylazine (6 mg/1.3 mg/Kg, i.p.). Then, the left kidney was exposed, and the upper and lower poles were tied with a suture line, followed by right nephrectomy. The peritoneum and skin were then sutured, and the animals were returned to their individual cages. […] Two weeks after sham or 5/6 nephrectomy surgery, the animals were subjected to a 24-hour urine collection and non-invasive tail blood pressure measurement every 4 weeks. Four weeks after the surgery, rats underwent 5/6 nephrectomy or shame surgery were randomly assigned into two groups, i.e., the control and the telbivudine groups, in which the control group received saline treatment, and rats in the telbivudine group received telbivudine (10 mg/mL/Kg) treatment for 8 or 12 weeks. Animals were then sacrificed, and kidney and heart biopsy samples were obtained.
5/6 nephrectomy is a procedure in which one kidney of a test animal is removed and 2/3 of the remaining kidney is ablated, thereby mimics the progressive renal failure after loss of renal mass in humans. Briefly, approximately 50% of the remaining kidney of the rat was removed by polar excision 1-2 weeks after uni-nephrectomy. Then, the animals were randomly assigned to two groups, the telbivudine group and the control group. Rats in the telbivudine group were orally fed with telbivudine (at a dosage of 100 mg/Kg) for 4, 8 or 12 weeks, while the animals in the control group were given just the water. Blood and urine samples were respectively collected on designated days and analyzed for the levels of blood urine nitrogen (BUN), serum creatine (CR), and hepatic enzymes (i.e., alanine aminotransferase (ALT) and aspartate aminotransferase (AST)). Heart function was determined by monitoring the changes in diastolic parameter—Tissue Velocity Imaging (TVI_V), E/A ratio, and the strain in cardia muscle (C_strain), left ventrical mass (LVMASS). Animals were sacrificed after the experiments were finished, and kidney biopsy samples were obtained.
Indoxyl sulfate (IS) and P-cresyl sulfate (PCS) are uremic toxins that accumulate in the serum of CKD patients, and are known factors for causing heart problems in the CKD subjects.

[2] = test system: CKD rats; assay: Kidney fibrosis in kidney samples of CKD rats
Description: Sprague Dawley rats (7 weeks old) were kept in pathogen-free environment under 12:12 light-dark cycle with food and water provided ad libitum, ambient temperature and relative humidity were respectively set at 24±2° C. and 50±20%. All procedures involving animal studies of the present disclosure comply with the “Guideline for the Care and Use of Laboratory Animals” issued by The Chinese-Taipei Society of Laboratory Animal Sciences. SD rats (about 10 weeks old) scheduled to undergo 5/6 nephrectomy or sham surgery were anesthetized by Zoletil 50/Xylazine (6 mg/1.3 mg/Kg, i.p.). Then, the left kidney was exposed, and the upper and lower poles were tied with a suture line, followed by right nephrectomy. The peritoneum and skin were then sutured, and the animals were returned to their individual cages. For animals underwent sham surgery, the left kidney was exposed in similar manner, but was then placed back into the abdominal cavity without further treatment, peritoneum and skin were then sutured. Two weeks after sham or 5/6 nephrectomy surgery, the animals were subjected to a 24-hour urine collection and non-invasive tail blood pressure measurement every 4 weeks. Four weeks after the surgery, rats underwent 5/6 nephrectomy or shame surgery were randomly assigned into two groups, i.e., the control and the telbivudine groups, in which the control group received saline treatment, and rats in the telbivudine group received telbivudine (10 mg/mL/Kg) treatment for 8 or 12 weeks. […] Blood and urine samples were respectively collected on designated days and analyzed for the levels of blood urine nitrogen (BUN), serum creatine (CR), and hepatic enzymes (i.e., alanine aminotransferase (ALT) and aspartate aminotransferase (AST)). Heart function was determined by monitoring the changes in diastolic parameter-Tissue Velocity Imaging ([…] ratio, and the strain in cardia muscle (C_strain), left ventrical mass ([…]). Animals were sacrificed after the experiments were finished, and kidney biopsy samples were obtained.

[3] = test system: IL-6 and COL-1-A1 in heart tissue of CKD rats; assay: Quantitative RT-PCR of IL-6 and COL-1-A1 in heart tissue of CKD rats
Description: SD rats (about 10 weeks old) scheduled to undergo 5/6 nephrectomy or sham surgery were anesthetized by Zoletil 50/Xylazine (6 mg/1.3 mg/Kg, i.p.). Then, the left kidney was exposed, and the upper and lower poles were tied with a suture line, followed by right nephrectomy. The peritoneum and skin were then sutured, and the animals were returned to their individual cages. […] Two weeks after sham or 5/6 nephrectomy surgery, the animals were subjected to a 24-hour urine collection and non-invasive tail blood pressure measurement every 4 weeks. […]
Total RNA was extracted from fresh frozen renal and heart tissues using the Trizol Reagent (Life Technologies), according to the manufacturer protocol. […] The concentration and purity of RNA were determined by Nanodrop Spectrophotometer (Thermo Scientific). […]
5/6 nephrectomy is a procedure in which one kidney of a test animal is removed and 2/3 of the remaining kidney is ablated, thereby mimics the progressive renal failure after loss of renal mass in humans. […] Blood and urine samples were respectively collected on designated days and analyzed for the levels of blood urine nitrogen (BUN), serum creatine (CR), and hepatic enzymes (i.e., alanine aminotransferase (ALT) and aspartate aminotransferase (AST)). […]

## Cc1cn([C@@H]2C[C@@H](O)[C@H](CO)O2)c(=O)[nH]c1=O [telbivudine]
[1]
  free level of Indoxyl sulfate (IS): effectively reduced
  free level of P-cresyl sulfate (PCS): effectively reduced
  total level of Indoxyl sulfate (IS): effectively reduced
  total level of P-cresyl sulfate (PCS): effectively reduced
[2]; telbivudine treatment for 8 weeks (FIG. 2 panel D)
  decrease of extent of kidney fibrosis: about 62.4%
[2]; telbivudine treatment for 12 weeks (FIG. 2 panel D)
  decrease of extent of kidney fibrosis: ~79.2%
[2]; telbivudine-treated vs untreated (FIG. 2 panel B vs C)
  extent of kidney fibrosis (photographs): significantly reduced
[3]
  mRNA level of COL-1-A1: markedly reduced
  mRNA level of IL-6: markedly reduced
